Source: US20220304974A1, “COMPOSITION COMPRISING GOSSYPETIN FOR PREVENTION OR TREATMENT OF NEURODEGENERATIVE DISEASE” (NOVMETAHEALTH CO.,LTD., priority 2019, published 2022)

Columns and labels:
[1] = system: 5×FAD Alzheimer's disease-induced mice; test: Y-maze test in Alzheimer's disease-induced mice; assay type: in vivo, mouse; details: for cognitive function (Y-maze test): 5×FAD mice, oral 10 mg/kg for 15 weeks from 8 weeks of age, FIG. 12
Description: (§1) […] Thereafter, Y-maze and Morris water maze tests were performed, which are widely used to check cognitive function. Specifically, short-term memory was assessed through the Y-maze test. The Morris water maze test was performed one week after the Y-maze test. Each mouse was trained to remember the location of the platform for 5 days, and then the time for the mouse to reach the platform was measured. On day 6 after the platform memory training, the platform was removed from the water tank, and the frequency of mouse staying at the site where the platform had been located was measured.

[2] = system: 5×FAD Alzheimer's disease-induced mice; test: Morris water maze test in Alzheimer's disease-induced mice; assay type: in vivo, mouse; details: 5×FAD mice; for memory of the platform site (water maze test): oral 10 mg/kg for 16 weeks from 8 weeks of age, platform removed on Day 6, FIG. 13
Description: as §1
In the water maze test, the mice were trained to find a platform placed under the surface in a water tank for 5 days, and then on Day 6, the platform was removed, and it was monitored how well the mice remembered the site where the platform had been located.

VRK2 [3] = target: T1, VRK2 (Homo sapiens, UniProt Q86Y07); test: VRK2 activity inhibition (in vitro kinase assay, autophosphorylation); assay type: biochemical
Source text: The kinase VRK2 is known to prevent the elimination of polyglutamine aggregates by regulating TRiC chaperone protein in cells.
The cytotoxicity of each compound was also examined.

[4] = system: U2OS cells expressing VRK2; test: Intracellular polyglutamine protein aggregation (dot blot, electrophoresis, microscopy), different concentrations of gossypetin; assay type: cell-based
Description: Polyglutamine protein aggregation is a cause of a degenerative brain disease. In order to investigate the polyglutamine protein aggregation inhibitory effect of gossypetin, U2OS cells expressing VRK2 were treated with different concentrations of gossypetin after the expression of a green fluorescent protein-conjugated polyglutamine protein, and a dot blot assay was performed. The protein aggregates formed in the cells were observed via electrophoresis, and the intracellular protein aggregate formation was observed using a microscope and quantitatively expressed.

VRK2 [5] = target: T1, VRK2; test: Binding between VRK2 and gossypetin-Sepharose 4B
Source text: First, gossypetin was chemically bound to Sepharose 4B (FIG. 2A), and then the binding between gossypetin and VRK2 was investigated.

Aβ amyloid aggregates = test: Immunohistochemistry staining of Aβ amyloid aggregates in brain slices; assay type: in vivo, mouse; details: hippocampus and frontal lobe tissues; mice fed with gossypetin; FIGS. 6A to 6F
Description: The brains were extracted from the groups of Alzheimer's disease-induced mice fed and not fed with gossypetin and were made into slices, and then the formation of Aβ amyloid aggregates was analyzed using immunohistochemistry staining.

chaperone protein CCT-4 = test: Chaperone protein preservation (amount of CCT-4); details: addition of gossypetin; FIG. 2E
cells = test: Cytotoxicity of each compound; assay type: cell-based; details: FIG. 11C
Description: (§2) In addition, cells were treated with each compound together with the induction of polyglutamine protein aggregation, and the reduction in amount of protein aggregation in the cells was observed using a fluorescence microscope. The total area of protein aggregation occurring in the cells, average size of protein aggregation, and inhibition rate of protein aggregation compared with the drug-untreated control group are shown in the table. The cytotoxicity of each compound was also examined.

microglia and astrocytes = test: Gliosis analysis with IBA-1 and GFAP antibodies in brain slices; assay type: in vivo, mouse; details: hippocampus and frontal lobe tissues; FIGS. 8 and 9
Description: The brains were extracted from the groups of Alzheimer's disease-induced mice fed and not fed with gossypetin and were made into slices, and then the distribution and proliferation of microglia and astrocytes were analyzed using an antibody against IBA-1, a specific protein of microglia, and an antibody against GFAP, a specific protein of astrocytes.

[6] = system: polyglutamine protein aggregation in the cells; test: Intracellular polyglutamine protein aggregation, comparison of compounds (fluorescence microscope); assay type: cell-based; details: compared with the drug-untreated control group; FIGS. 11A and 11B
Description: as §2

T1 sequence (Q86Y07 whole entry, species assumed): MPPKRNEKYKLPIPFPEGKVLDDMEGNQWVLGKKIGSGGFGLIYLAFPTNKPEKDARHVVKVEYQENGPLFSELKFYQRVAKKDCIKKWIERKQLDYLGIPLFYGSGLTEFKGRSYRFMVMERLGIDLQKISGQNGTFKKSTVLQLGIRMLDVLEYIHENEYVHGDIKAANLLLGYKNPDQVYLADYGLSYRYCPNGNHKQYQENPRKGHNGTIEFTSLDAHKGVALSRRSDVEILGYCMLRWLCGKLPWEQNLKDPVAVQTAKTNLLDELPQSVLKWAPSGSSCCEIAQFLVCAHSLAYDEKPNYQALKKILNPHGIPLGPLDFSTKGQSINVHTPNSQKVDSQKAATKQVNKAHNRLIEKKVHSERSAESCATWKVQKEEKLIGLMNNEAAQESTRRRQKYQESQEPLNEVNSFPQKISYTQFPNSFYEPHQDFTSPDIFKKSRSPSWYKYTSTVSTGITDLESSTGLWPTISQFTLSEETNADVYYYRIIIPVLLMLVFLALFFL

SMILES	cognitive function (Y-maze test) [1]	memory of the platform site (water maze test) [2]	short-term memory (Y-maze test) ([1]; 7-week-old 5×FAD mice, oral 10 mg/kg for 14 weeks, FIG. 3C)	time to find the platform (escape latency) ([2]; oral 10 mg/kg for 14 weeks, 5 days training, FIG. 4)	frequency of staying at the site where the platform had been located ([2]; oral 10 mg/kg for 14 weeks, platform removed, day 6, FIG. 5)	VRK2 activity (VRK2 [3]; different concentrations of gossypetin, FIG. 2D)	autophosphorylation activity of VRK2 (VRK2 [3]; same concentration of 25 μM, FIG. 10)	number of protein aggregate-bearing cells ([4]; FIGS. 1F to 1H)	polyglutamine protein aggregates ([4]; different concentrations of gossypetin, FIGS. 1A and 1B)	interaction between gossypetin and VRK2 (competition by added gossypetin) (VRK2 [5]; addition of gossypetin, FIG. 2C)	binding between gossypetin and VRK2 (VRK2 [5]; gossypetin-Sepharose 4B vs Sepharose 4B, FIG. 2B)	Aβ amyloid aggregates (Aβ amyloid aggregates)	amount of the chaperone protein CCT-4 (chaperone protein CCT-4)	cytotoxicity (cells)	hyperactivity of microglia and astrocytes (gliosis) (microglia and astrocytes)	inhibition of the intracellular protein aggregation [6] [%]
O=C(/C=C/c1ccc(O)c(O)c1)O[C@H](Cc1ccc(O)c(O)c1)C(=O)O [rosmarinic acid, reference compound]	did not contribute to the alleviation of such cognitive function decline	not significantly restored														
O=c1c(O)c(-c2ccc(O)c(O)c2)oc2c(O)c(O)cc(O)c12 [gossypetin, 2-(3,4-dihydroxyphenyl)-3,5,7,8-tetrahydroxy-4H-chromen-4-one]	restored the behavioral alteration to an almost normal level	excellent memory comparable to normal mice	improvement in short-term memory to a level similar to that of normal mice	found the platform in a shorter amount of time which was almost as fast as normal mice	increased frequency of staying at the site where the platform had been located	inhibited depending on the concentration of gossypetin	most strongly inhibited	decreased	reduced depending on the gossypetin concentration	specific	VRK2 and gossypetin bound to each other	significantly reduced	not decreased but increased	not showing toxicity in cells	significantly reduced	43
